experiment: Biodistribution of radiolabelled DTPA complexes in normal rats, compared with 99mTc-DTPA positive control; format: in vivo; settings: normal Sprague-Dawley rats; 111In-labelled complex
Description: Commercially available DTPA kit (Draximage Co., Ontario, Canada) was labeled with ^99mTc by the standard procedure described in the package insert that was supplied with the kit, and was administered to Sprague-Dawley rats (3 rats for each time point of 15 minutes, 60 minutes, 120 minutes, and 24 hours).
A mixture of the stock solution of DTPA-mono(7-amino-4-methylcoumarin)amide ligand (1 mg/mL in 0.5M sodium acetate buffer, 100 μL), obtained from Gunma University, Japan (Ozaki, et. al. Reference 30), sodium acetate solution (0.5M, 100 μL), and commercially available ^111InCl3 solution (0.1M HCl, 100-200 μCi/100 μL) was adjusted to pH 4.5 and incubated at ambient temperature for 30 minutes. The resulting indium complex was purified by reverse phase HPLC and administered to Sprague-Dawley rats. The biodistribution was carried out in the same manner as that of ^99mTc-DTPA in Example 1 (FIG. 8).

Substance | hepatobiliary clearance (relative to reference complex)
^111In-HMDTPA-1-naphthylurethane complex [Example 5] | much higher hepatobiliary clearance

same assay, conditions: normal Sprague-Dawley rats; time points 15 minutes, 60 minutes, 120 minutes, 24 hours; 111In-labelled complex

Substance | biodistribution of the complex (comparison with reference complex)
^111In-DTPA-mono(quinoxanylamino)ethylamide complex [Example 8] | nearly identical to that of the DTPA-coumarin derivative in Example 2
^111In-DTPA-mono(1-naphthylamide) complex [Example 4] | nearly identical to that of ^99mTc-DTPA
^111In-DTPA-mono(salicylamide) complex [Example 3] | nearly identical to that of ^99mTc-DTPA
^111In-DTPA-mono(pyrazinylamino)ethylamide complex [Example 7] | nearly identical to that of ^99mTc-DTPA
^111In-DTPA-bis(salicylamide) complex [Example 6] | nearly identical to that of ^99mTc-DTPA

Reference: patent US7674902B2, “Luminescent metal complexes for monitoring renal function” (priority 2004, dated 2010)
